Here are results for 25 compounds from patent US20230365592A1 (Agios Pharmaceuticals, Inc., priority 2022, published 2023).

The target in this experiment is T1, human PAH with the R408W mutation (Homo sapiens, UniProt P00439, R408W).
T1 construct: expressed in transfected cells
T1 sequence (P00439 1-452 R408W): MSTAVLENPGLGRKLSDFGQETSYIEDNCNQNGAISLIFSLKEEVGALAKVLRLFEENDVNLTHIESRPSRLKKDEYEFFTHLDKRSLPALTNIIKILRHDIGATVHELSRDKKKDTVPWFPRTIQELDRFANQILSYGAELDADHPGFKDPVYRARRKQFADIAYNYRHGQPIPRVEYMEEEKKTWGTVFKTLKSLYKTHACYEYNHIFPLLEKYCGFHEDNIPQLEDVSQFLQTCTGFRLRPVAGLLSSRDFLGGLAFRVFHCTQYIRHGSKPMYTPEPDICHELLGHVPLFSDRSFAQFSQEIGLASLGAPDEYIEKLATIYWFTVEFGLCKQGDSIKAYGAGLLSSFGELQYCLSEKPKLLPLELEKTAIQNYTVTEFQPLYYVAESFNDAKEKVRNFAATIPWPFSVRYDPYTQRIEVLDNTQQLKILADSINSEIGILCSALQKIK
Put plainly: Cell Based Phenylalanine Flux Assay.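 Also: after compound treatment, cells received sepiapterin plus isotope-labelled Phenylalanine for 4 hours, then labelled Tyrosine in the medium was quantified, 10-point 2-fold dilution series run in duplicate.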 The note with it: A375 cells expressing human PAH R408W; 24 hrs compound incubation; 13C-Tyrosine by LC-MS; average where tested multiple times; read-out: AC50.

Take `Fc1cccc(F)c1-c1nnc(N2CCc3[nH]cnc3[C@H]2c2cc3cccc(Cl)n3n2)o1` [Example 2089, (S)-2-(4-(7-chloropyrazolo[1,5-a]pyridin-2-yl)-1,4,6,7-tetrahydro-5H-imidazo[4,5-c]pyridin-5-yl)-5-(2,6-difluorophenyl)-1,3,4-oxadiazole]: the half-maximal activity concentration (AC50) was under 500 nM.

`Cc1cccc2cc([C@@H]3c4nc[nH]c4CCN3c3nnc(-c4c(F)cccc4F)o3)nn12` [Example 2091, (S)-2-(2,6-difluorophenyl)-5-(4-(7-methylpyrazolo[1,5-a]pyridin-2-yl)-1,4,6,7-tetrahydro-5H-imidazo[4,5-c]pyridin-5-yl)-1,3,4-oxadiazole]: the AC50 was under 500 nM. The same measure for `Fc1cccc(F)c1-c1nnc(N2CCc3[nH]cnc3[C@@H]2c2cc3cccc(C(F)F)n3n2)o1` [Example 2092, (R)-2-(4-(7-(difluoromethyl)pyrazolo[1,5-a]pyridin-2-yl)-1,4,6,7-tetrahydro-5H-imidazo[4,5-c]pyridin-5-yl)-5-(2,6-difluorophenyl)-1,3,4-oxadiazole]: over 5000 nM. Under `Fc1cccc(F)c1-c1nnc(N2CCc3[nH]cnc3[C@H]2c2cc3cccc(C(F)F)n3n2)o1` [Example 2093, (S)-2-(4-(7-(difluoromethyl)pyrazolo[1,5-a]pyridin-2-yl)-1,4,6,7-tetrahydro-5H-imidazo[4,5-c]pyridin-5-yl)-5-(2,6-difluorophenyl)-1,3,4-oxadiazole] stands under 500 nM; under `FC(F)(F)c1ccc(N2CCc3[nH]cnc3[C@H]2c2cc3c(Cl)cccn3n2)nc1` [Example 2095, (S)-4-(4-chloropyrazolo[1,5-a]pyridin-2-yl)-5-(5-(trifluoromethyl)pyridin-2-yl)-4,5,6,7-tetrahydro-1H-imidazo[4,5-c]pyridine], under 500 nM; under `Cc1cccc2cc([C@H]3c4nc[nH]c4CCN3c3ccc(C(F)(F)F)cn3)nn12` [Example 2096, (R)-4-(7-methylpyrazolo[1,5-a]pyridin-2-yl)-5-(5-(trifluoromethyl)pyridin-2-yl)-4,5,6,7-tetrahydro-1H-imidazo[4,5-c]pyridine], over 5000 nM. Regarding `O=C(c1cnc(C2CC2)o1)N1CCc2[nH]cnc2[C@H]1c1cc2c(C(F)F)cccn2n1` [Example 2102, (S)-(2-cyclopropyloxazol-5-yl)(4-(4-(difluoromethyl)pyrazolo[1,5-a]pyridin-2-yl)-1,4,6,7-tetrahydro-5H-imidazo[4,5-c]pyridin-5-yl)methanone], the AC50 is under 500 nM. The same measure for `CC(C)(C)c1ncc(C(=O)N2CCc3[nH]cnc3[C@H]2c2cc3c(C(F)F)cccn3n2)o1` [Example 2104, (S)-(2-(tert-butyl)oxazol-5-yl)(4-(4-(difluoromethyl)pyrazolo[1,5-a]pyridin-2-yl)-1,4,6,7-tetrahydro-5H-imidazo[4,5-c]pyridin-5-yl)methanone]: under 500 nM. Under `CC(C)(F)c1ncc(C(=O)N2CCc3[nH]cnc3[C@H]2c2cc3c(C(F)F)cccn3n2)o1` [Example 2106, (S)-(4-(4-(difluoromethyl)pyrazolo[1,5-a]pyridin-2-yl)-1,4,6,7-tetrahydro-5H-imidazo[4,5-c]pyridin-5-yl)(2-(2-fluoropropan-2-yl)oxazol-5-yl)methanone] stands under 500 nM; under `Cn1ccc(-c2ncc(C(=O)N3CCc4[nH]cnc4[C@H]3c3cc4c(C(F)(F)F)cccn4n3)o2)n1` [Example 2109, (S)-(2-(1-methyl-1H-pyrazol-3-yl)oxazol-5-yl)(4-(4-(trifluoromethyl)pyrazolo[1,5-a]pyridin-2-yl)-1,4,6,7-tetrahydro-5H-imidazo[4,5-c]pyridin-5-yl)methanone], 500 to 1000 nM. `Cc1c(-c2ncc(C(=O)N3CCc4[nH]cnc4[C@H]3c3cc4c(C(F)(F)F)cccn4n3)o2)cnn1C` [Example 2110, (S)-(2-(1,5-dimethyl-1H-pyrazol-4-yl)oxazol-5-yl)(4-(4-(trifluoromethyl)pyrazolo[1,5-a]pyridin-2-yl)-1,4,6,7-tetrahydro-5H-imidazo[4,5-c]pyridin-5-yl)methanone]: the concentration at half-maximal activity (AC50) was under 500 nM. Under `O=C(c1ocnc1C1CC1)N1CCc2[nH]cnc2[C@H]1c1cc2cccc(C(F)F)n2n1` [Example 2112, (S)-(4-cyclopropyloxazol-5-yl)(4-(7-(difluoromethyl)pyrazolo[1,5-a]pyridin-2-yl)-1,4,6,7-tetrahydro-5H-imidazo[4,5-c]pyridin-5-yl)methanone] stands 500 to 1000 nM. The same measure for `O=C(c1ocnc1C1CC1)N1CCc2[nH]cnc2[C@@H]1c1cc2cccc(C(F)F)n2n1` [Example 2113, (R)-(4-cyclopropyloxazol-5-yl)(4-(7-(difluoromethyl)pyrazolo[1,5-a]pyridin-2-yl)-1,4,6,7-tetrahydro-5H-imidazo[4,5-c]pyridin-5-yl)methanone]: over 5000 nM; for `Cn1cc(-c2nc(C3CC3)c(C(=O)N3CCc4[nH]cnc4[C@@H]3c3cc4c(C(F)F)cccn4n3)o2)cn1` [Example 2115, (R)-(4-cyclopropyl-2-(1-methyl-1H-pyrazol-4-yl)oxazol-5-yl)(4-(4-(difluoromethyl)pyrazolo[1,5-a]pyridin-2-yl)-1,4,6,7-tetrahydro-5H-imidazo[4,5-c]pyridin-5-yl)methanone]: 1000 to 5000 nM. Under `O=C(c1oc(-c2ccccn2)nc1C1CC1)N1CCc2[nH]cnc2[C@H]1c1cc2c(F)cccn2n1` [Example 2118, (S)-(4-cyclopropyl-2-(pyridin-2-yl)oxazol-5-yl)(4-(4-fluoropyrazolo[1,5-a]pyridin-2-yl)-1,4,6,7-tetrahydro-5H-imidazo(4,5-c]pyridin-5-yl)methanone] stands under 500 nM; under `O=C(c1oc(-c2ccccn2)nc1C1CC1)N1CCc2[nH]cnc2[C@@H]1c1cc2c(F)cccn2n1` [Example 2119, (R)-(4-cyclopropyl-2-(pyridin-2-yl)oxazol-5-yl)(4-(4-fluoropyrazolo[1,5-a]pyridin-2-yl)-1,4,6,7-tetrahydro-5H-imidazo[4,5-c]pyridin-5-yl)methanone], 1000 to 5000 nM; under `Cc1cccn2nc([C@@H]3c4nc[nH]c4CCN3C(=O)c3oc(-c4ccccn4)nc3C3CC3)cc12` [Example 2120, (S)-(4-cyclopropyl-2-(pyridin-2-yl)oxazol-5-yl)(4-(4-methylpyrazolo[1,5-a]pyridin-2-yl)-1,4,6,7-tetrahydro-5H-imidazo[4,5-c]pyridin-5-yl)methanone], under 500 nM. Consider `O=C(c1oc(-c2ccccn2)nc1C1CC1)N1CCc2[nH]cnc2[C@H]1c1cc2c(C(F)F)cccn2n1` [Example 2122, (S)-(4-cyclopropyl-2-(pyridin-2-yl)oxazol-5-yl)(4-(4-(difluoromethyl)pyrazolo[1,5-a]pyridin-2-yl)-1,4,6,7-tetrahydro-5H-imidazo[4,5-c]pyridin-5-yl)methanone], for which the AC50 was under 500 nM.

Take `O=C(c1oc(-c2ccccn2)nc1C1CC1)N1CCc2[nH]cnc2[C@@H]1c1cc2c(C(F)F)cccn2n1` [Example 2123, (R)-(4-cyclopropyl-2-(pyridin-2-yl)oxazol-5-yl)(4-(4-(difluoromethyl)pyrazolo[1,5-a]pyridin-2-yl)-1,4,6,7-tetrahydro-5H-imidazo[4,5-c]pyridin-5-yl)methanone]: the AC50 was in the range of 1000 to 5000 nM. The same measure for `O=C(c1oc(-c2ccccn2)nc1C1CC1)N1CCc2[nH]cnc2[C@@H]1c1cc2c(C(F)(F)F)cccn2n1` [Example 2125, (R)-(4-cyclopropyl-2-(pyridin-2-yl)oxazol-5-yl)(4-(4-(trifluoromethyl)pyrazolo[1,5-a]pyridin-2-yl)-1,4,6,7-tetrahydro-5H-imidazo[4,5-c]pyridin-5-yl)methanone]: 1000 to 5000 nM; for `Cc1cccn2nc([C@H]3c4nc[nH]c4CCN3c3ccccn3)cc12` [Example 2126, (R)-4-(4-methylpyrazolo[1,5-a]pyridin-2-yl)-5-(pyridin-2-yl)-4,5,6,7-tetrahydro-1H-imidazo[4,5-c]pyridine]: over 5000 nM; for `Fc1ccc(-c2nnc(N3CCc4[nH]cnc4[C@H]3c3cc4cccc(C(F)(F)F)n4n3)o2)cc1` [Example 2129, (S)-2-(4-fluorophenyl)-5-(4-(7-(trifluoromethyl)pyrazolo[1,5-a]pyridin-2-yl)-1,4,6,7-tetrahydro-5H-imidazo[4,5-c]pyridin-5-yl)-1,3,4-oxadiazole]: under 500 nM. Under `Fc1ccc(-c2nnc(N3CCc4[nH]cnc4[C@@H]3c3cc4cccc(C(F)F)n4n3)o2)cc1` [Example 2130, (R)-2-(4-(7-(difluoromethyl)pyrazolo[1,5-a]pyridin-2-yl)-1,4,6,7-tetrahydro-5H-imidazo[4,5-c]pyridin-5-yl)-5-(4-fluorophenyl)-1,3,4-oxadiazole] stands over 5000 nM; under `Fc1ccc(-c2nnc(N3CCc4[nH]cnc4[C@H]3c3cc4cccc(C(F)F)n4n3)o2)cc1` [Example 2131, (S)-2-(4-(7-(difluoromethyl)pyrazolo[1,5-a]pyridin-2-yl)-1,4,6,7-tetrahydro-5H-imidazo[4,5-c]pyridin-5-yl)-5-(4-fluorophenyl)-1,3,4-oxadiazole], under 500 nM; under `Fc1cccc(F)c1-c1nnc(N2CCc3[nH]cnc3[C@@H]2c2cc3cccc(C(F)(F)F)n3n2)o1` [Example 2132, (R)-2-(2,6-difluorophenyl)-5-(4-(7-(trifluoromethyl)pyrazolo[1,5-a]pyridin-2-yl)-1,4,6,7-tetrahydro-5H-imidazo[4,5-c]pyridin-5-yl)-1,3,4-oxadiazole], 1000 to 5000 nM.

What is called AC50 is the concentration giving half of the maximal activity seen.
